The source of these data is patent US20260184714A1, “SMALL MOLECULE MODULATORS OF PAR2 AND USES THEREOF” (PARMEDICS, INC., priority 2022, published 2026).

Where two headings read alike, the source gives them in different places.

In general, AUC refers to concentration integrated over time. Lower therefore signals low exposure. For orientation: Tmax means the time from dosing to the highest level. A word on the half-life: it is the time needed for the level to fall by half in the phase considered. High values mean slow loss, low ones fast loss.

Data set [1] concerns the target T1, protease-activated receptor-2 (PAR2) (Homo sapiens, UniProt P55085).
T1 construct: a human bronchial epithelial cell line that naturally expressed PAR2; endogenous in cells; host or cells: 16HBE14o- human bronchial epithelial cells
T1 sequence (P55085 26-397): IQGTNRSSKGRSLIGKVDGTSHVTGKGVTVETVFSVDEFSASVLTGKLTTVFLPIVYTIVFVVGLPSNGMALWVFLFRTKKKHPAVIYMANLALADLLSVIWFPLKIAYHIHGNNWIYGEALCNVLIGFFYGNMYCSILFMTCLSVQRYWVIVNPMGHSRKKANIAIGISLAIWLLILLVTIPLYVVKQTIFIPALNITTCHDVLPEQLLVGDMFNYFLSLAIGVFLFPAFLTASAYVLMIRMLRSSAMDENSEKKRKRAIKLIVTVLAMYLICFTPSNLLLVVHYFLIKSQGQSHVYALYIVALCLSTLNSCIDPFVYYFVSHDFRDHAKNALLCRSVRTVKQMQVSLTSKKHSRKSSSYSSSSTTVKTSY
Nature of the data set: xCELLigence real time cellular analysis (RTCA) of PAR2 antagonism. The following applies: 16HBE14o- cells; 5 min pre-incubation with 300 nM-10 μM compound, then 300 nM 2AT or 30 nM trypsin; high concentrations. The format is cell-based. As to the method:
(§1) Compound I-1 (labelled as “C I-1” in FIGS. 1A-1D) was evaluated for its ability to antagonize protease-activated receptor-2 (PAR2) in several cellular assays using a human bronchial epithelial cell line that naturally expressed PAR2 (16HBE14o− cells; see FIG. 1A-1D).
In the first assay to detect an in vitro physiological response, the xCELLigence real time cellular analysis (RTCA) was used.
Following overnight growth, varying concentrations of Compound I-1 was added to individual wells (in quadruplicate) in final concentrations of 300 nM, 1 μM, 3 μM and 10 μM. […] The upward deflection and recovery of the Cell Index shown in response to control 300 nM 2AT (FIG. 1A) or 30 nM (FIG. 1B) represents a typical EC50 response.

Data set [2] addresses T1, protease-activated receptor-2 (PAR2). In words: Digital imaging microscopy of intracellular Ca2+ changes (Gq/Ca2+ signaling). It counts as cell-based. The following applies: 16HBE14o- cells; [Ca2+]i by digital imaging microscopy. How it is done:
as §1
(§2) It is known that two primary signaling outcomes of PAR2 activation are the initiation of Gq/Ca^2+ and β-arrestin/MAPK signaling. To determine whether the observed in vitro physiologic antagonism represented partial antagonism or intracellular signaling dependent antagonism, digital imaging microscopy was used to assay intracellular Ca^2+ changes ([Ca^2+ ]i; […]) as a measure of Gq/Ca^2+ signaling and an In Cell Western approach for measuring phosphorylation of extracellular regulated kinase ½ (ICW of pERK ½; see FIG. 1D) as an assay for β-arrestin/MAPK signaling. […] It is concluded that Compound I-1 is a β-arrestin/MAPK biased PAR2 antagonist.

Data set [3] has the same target. Nature of the data set: In Cell Western of pERK 1/2 (β-arrestin/MAPK signaling). It counts as cell-based. The following applies: 16HBE14o- cells; ICW of pERK 1/2. As to the method: as §1, §2
A short description of data set [4]: In vivo pharmacokinetics (plasma concentration by LC-MS/MS, non-compartmental analysis). The following applies: mouse; for concentration at 24 h: read-out: Clast (24 h); for Cmax: read-out: Co/Cmax. As to the method: Compound I-1 was evaluated for its plasma stability and oral bioavailability. Mice were fasted overnight before dosing, with water provided ad libitum throughout the study. Three animals are dosed via gavage needle for oral administration at 10 mg/kg (10 mL/kg), via tail vein injection for intravenous administration at […], and via injection in the lower right quadrant of the abdomen for intraperitoneal injections at 10 mg/kg (10 mL/kg). Blood samples (25-30 μL per sample) were taken via saphenous or submandibular vein at 5, 15, 30 min, and 1, 2, 4, 6, 8, 24 h post dose and drug concentration determined by LC-MS/MS. Plasma concentrations were then graphed vs time and pharmacokinetic parameters (terminal half life, t1/2; initial plasma concentration, Co; area under the curve (AUC); volume of distribution at steady-state. Vss; total plasma clearance CLp; mean residence time, MRT; maximum plasma concentration Cmax; time to reach Cmax, tmax; and bioavailability, F) were determined using non-compartmental analysis.

Data set [5] has as its system stress-induced migraine-like pain. Nature of the data set: Stress-induced migraine model, facial withdrawal response after SNP. The following applies: mice, restraint stress for 3 days, 14-day recovery, then SNP. The format is in vivo, mouse. As to the method:
Migraine headaches are characterized by sensitivity of pain-sensing neurons in the dura mater to innocuous stimuli, e.g., the nitric oxide donor, sodium nitroprusside (SNP). Compound I-1 was evaluated in vivo using a mouse migraine model to assess whether it can be used to treat stress-induced migraine-like pain. FIG. 2 summarizes the results for this in vivo study.
Mice were subjected to restraint stress for 3 days (□ and ⋄ data points in FIG. 2) or left unrestrained (∘ and Δ data points in FIG. 2), resulting in a significant facial withdrawal response up to 3 days post-stress.

For data set [6], the system named is airway hyperresponsiveness induced by Alternaria alternata. In words: Alternaria alternata-induced asthma model, total airway resistance to methacholine (FLEXIVENT). It counts as in vivo, mouse. The following applies: mice, Alternaria alternata intranasally three times over 8 days, with Compound I-1. How it is done: Alternaria alternata is a fungal allergen that activates PAR2 in the airways to promote inflammation and bronchoconstriction. Compound I-1 was evaluated in vivo to assess whether it can be used to treat airway hyperresponsiveness induced by Alternaria alternata. FIG. 3 summarizes the results for this in vivo study.
Alternaria alternata or saline (A data points in FIG. 3) were administered intranasally in a mouse asthma model three times over an 8 day period, in the presence (Q data points in FIG. 3) or absence (o data points in FIG. 3) of Compound I-1. Total airway resistance in response to increasing amounts of methacholine was monitored using the FLEXIVENT® (Scireq, Quebec, Canada) system.

Turning to `CC(C)C[C@@H]1C(=O)N2C(CN(CC3CCNCC3)C(=O)[C@@H]2CC(C)C)N1C(=O)c1ccco1` (stereo partly drawn) [Compound I-1, 4-(((2R,5S)-1-(furan-2-carbonyl)-2,5-diisobutyl-3,6-dioxohexahydroimidazolo [1,2-a]pyrazin-7(1H)-yl)methyl)piperidin-1-ium chloride], the “Cell Index response to PAR2 activation (antagonism)” value in data set [1] is recorded as “reduced the response”. The “Antagonism at the Gq/Ca2+ signaling pathway” value in data set [2] is listed as “not observed”. Besides, the “Antagonism of the β-arrestin/MAPK-signaling pathway” value in data set [3] was “significant antagonism”. In data set [4] (IP, 10 mg/kG), this compound yielded an F of 89.8%. In data set [4] (Oral, 10 mg/kG), this compound yielded an F of 84.7%. Moreover, in data set [4] (plasma, IP, 10 mg/kG), the area under the curve (AUC) was 2670 ng·h/mL, the Tmax is 0.25 h, the half-life is 7.97 h and the concentration at 24 h amounted to 12.9 ng/mL. Further, in data set [4] (plasma, IP, 10 mg/kG), the Cmax came out at 689 ng/mL. Also, in data set [4] (plasma, IV, 2 mg/kG), the AUC is 595 ng·h/mL, the half-life was 7.9 h, the concentration at 24 h turned out to be 1.15 ng/mL and the Cmax was found to be 1330 ng/mL. In data set [4] (plasma, IV, 2 mg/kG, read-out: CLp), the clearance was 56.6 mL/min/kg. Besides, the Vd in data set [4] (plasma, IV, 2 mg/kG, read-out: Vss) came out at 8.29 L/kg. Also, in data set [4] (plasma, Oral, 10 mg/kG), the AUC was found to be 2520 ng·h/mL, the Tmax is 0.5 h, the half-life is 7.45 h and the concentration at 24 h came to 11.4 ng/mL. In data set [4] (plasma, Oral, 10 mg/kG), the Cmax came out at 632 ng/mL. Also, in data set [5], the “Facial withdrawal response after SNP” value is “eliminated”. Also, the “Total airway resistance in response to increasing methacholine” value in data set [6] is “has promise as a therapeutic for reducing allergen-induced asthma attacks”.
